Assay results: article PMC11057469, “Quantitative cross-species comparison of serum albumin binding of per- and polyfluoroalkyl substances from five structural classes” (Toxicological Sciences, 2024)
Where two headings read alike, the source gives them in different places.

Key:
[1] = target: Bovine serum albumin (BSA) (Bos taurus, UniProt P02769); assay: biochemical; settings: for difference in binding affinity, BSA affinity lower than HSA: BSA compared with HSA; for ΔTm: bovine, pH 7.4
Experimental: (§1) A minimum of 2 independent plates were run for each protein-ligand combination, with 3 replicates per sample on each plate. Controls on each plate included a no protein control, matching vehicle control (no ligand), and 3 concentrations of OA (1, 2, 3 mM) and/or PFHxA (0.3, 1, 3 mM) as positive controls. The concentration of albumin that yielded maximal signal-to-noise ratio was optimized for each species. […] For concentration-response analyses, PFAS stock solutions were serially diluted into HBS.

[2] = target: human serum albumin (HSA) (Homo sapiens, UniProt P02768); assay: biochemical
Experimental: (§2) Serum albumin stocks (1 mM) were prepared by reconstituting lyophilized stocks in HBS, with expected protein concentrations confirmed using the colorimetric Bio-Rad DC Protein Assay (Hercules, California).
as §1

[3] = target: porcine serum albumin (PSA) (Sus scrofa, UniProt P08835); assay: biochemical; settings: for ΔTm: pig, pH 7.4
Experimental: as §2, §1

Rat serum albumin (RSA) = Rat serum albumin (RSA) (Rattus norvegicus, UniProt P02770); assay: biochemical; settings: for ΔTm: rat, pH 7.4; for difference in binding affinity, RSA affinity greater than HSA: RSA compared with HSA, from DSF Kd
Experimental: as §2, §1

[4] = elimination half-life in serum/plasma, Rat, cited from earlier work
[5] = elimination half-life in serum/plasma, Human, cited from earlier work
[6] = pig, after oral exposure; ref Fasano et al., 2006; Xie et al., 2020; cited from earlier work
[7] = rat, after oral exposure; ref Fasano et al., 2006; Xie et al., 2020; cited from earlier work
[8] = parameters: method as in Death et al., 2021; settings: elimination half-life in serum/plasma, Cow; ref Death et al., 2021; cited from earlier work
[9] = parameters: method as in Numata et al., 2014; settings: elimination half-life in serum/plasma, Pig; ref Numata et al., 2014; cited from earlier work
[10] = BSA, 1 = highest relative affinity, 4 = lowest
[11] = HSA, 1 = highest relative affinity, 4 = lowest
[12] = PSA compared with HSA, from DSF Kd
[13] = PSA, 1 = highest relative affinity, 4 = lowest
[14] = RSA, 1 = highest relative affinity, 4 = lowest

human serum albumin (HSA), sequence (P02768 25-609): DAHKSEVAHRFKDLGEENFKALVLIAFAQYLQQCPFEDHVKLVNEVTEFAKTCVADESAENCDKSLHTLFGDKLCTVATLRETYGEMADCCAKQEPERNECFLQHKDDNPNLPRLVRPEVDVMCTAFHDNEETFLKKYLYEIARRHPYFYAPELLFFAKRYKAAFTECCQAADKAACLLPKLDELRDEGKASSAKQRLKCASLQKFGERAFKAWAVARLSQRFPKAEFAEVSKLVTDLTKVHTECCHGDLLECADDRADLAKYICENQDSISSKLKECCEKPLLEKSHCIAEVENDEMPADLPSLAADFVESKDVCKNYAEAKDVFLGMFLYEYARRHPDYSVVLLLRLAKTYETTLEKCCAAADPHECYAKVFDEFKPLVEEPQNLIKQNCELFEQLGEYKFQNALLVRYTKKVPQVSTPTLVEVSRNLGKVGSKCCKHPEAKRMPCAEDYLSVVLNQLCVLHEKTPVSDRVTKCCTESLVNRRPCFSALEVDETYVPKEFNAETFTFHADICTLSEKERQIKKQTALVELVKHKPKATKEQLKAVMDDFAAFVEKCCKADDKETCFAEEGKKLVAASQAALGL
Bovine serum albumin (BSA), sequence (P02769 25-607): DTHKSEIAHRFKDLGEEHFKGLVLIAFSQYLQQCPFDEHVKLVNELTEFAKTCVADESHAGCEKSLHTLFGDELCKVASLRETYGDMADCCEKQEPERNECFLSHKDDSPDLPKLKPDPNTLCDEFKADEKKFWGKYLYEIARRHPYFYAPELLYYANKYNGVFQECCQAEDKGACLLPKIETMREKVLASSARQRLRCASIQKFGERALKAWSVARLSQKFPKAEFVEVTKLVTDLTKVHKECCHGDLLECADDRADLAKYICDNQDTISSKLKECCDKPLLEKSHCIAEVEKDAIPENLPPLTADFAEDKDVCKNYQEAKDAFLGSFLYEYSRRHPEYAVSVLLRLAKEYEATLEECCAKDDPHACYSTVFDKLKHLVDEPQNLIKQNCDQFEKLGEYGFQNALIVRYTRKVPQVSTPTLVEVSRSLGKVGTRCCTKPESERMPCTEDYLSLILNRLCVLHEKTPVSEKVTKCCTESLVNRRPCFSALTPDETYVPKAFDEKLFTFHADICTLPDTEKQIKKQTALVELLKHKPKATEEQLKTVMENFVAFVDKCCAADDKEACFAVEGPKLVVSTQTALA
porcine serum albumin (PSA), sequence (P08835 25-607): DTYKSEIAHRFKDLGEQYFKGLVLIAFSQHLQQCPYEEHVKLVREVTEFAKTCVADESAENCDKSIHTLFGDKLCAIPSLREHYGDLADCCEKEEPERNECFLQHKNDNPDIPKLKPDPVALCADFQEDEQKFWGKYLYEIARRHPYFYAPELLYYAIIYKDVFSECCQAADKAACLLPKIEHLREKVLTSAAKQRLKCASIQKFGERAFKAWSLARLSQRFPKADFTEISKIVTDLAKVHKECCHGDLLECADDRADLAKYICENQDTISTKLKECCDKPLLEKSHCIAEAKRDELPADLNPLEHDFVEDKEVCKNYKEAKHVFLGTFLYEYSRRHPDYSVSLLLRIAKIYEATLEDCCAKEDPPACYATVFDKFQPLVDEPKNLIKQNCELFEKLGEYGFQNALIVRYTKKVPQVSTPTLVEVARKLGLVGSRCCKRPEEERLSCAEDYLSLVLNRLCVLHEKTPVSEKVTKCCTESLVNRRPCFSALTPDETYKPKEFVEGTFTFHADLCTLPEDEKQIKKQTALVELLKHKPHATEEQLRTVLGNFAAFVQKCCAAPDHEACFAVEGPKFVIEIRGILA
Rat serum albumin (RSA), sequence (P02770 25-608): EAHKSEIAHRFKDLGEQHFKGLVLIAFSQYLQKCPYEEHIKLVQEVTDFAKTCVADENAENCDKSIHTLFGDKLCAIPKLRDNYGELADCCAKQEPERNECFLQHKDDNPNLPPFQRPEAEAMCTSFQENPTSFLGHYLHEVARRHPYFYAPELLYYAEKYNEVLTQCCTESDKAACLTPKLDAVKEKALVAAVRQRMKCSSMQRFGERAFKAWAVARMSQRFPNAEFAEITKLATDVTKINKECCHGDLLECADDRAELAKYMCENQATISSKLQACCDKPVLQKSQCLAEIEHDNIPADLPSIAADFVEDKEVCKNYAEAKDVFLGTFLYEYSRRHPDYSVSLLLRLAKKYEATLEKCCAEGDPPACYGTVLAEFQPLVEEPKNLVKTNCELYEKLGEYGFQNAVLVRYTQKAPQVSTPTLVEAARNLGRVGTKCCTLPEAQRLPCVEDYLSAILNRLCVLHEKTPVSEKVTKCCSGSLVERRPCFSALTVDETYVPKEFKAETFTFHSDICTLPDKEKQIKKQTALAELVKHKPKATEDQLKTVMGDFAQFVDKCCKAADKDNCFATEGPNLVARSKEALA

Row | SMILES | Kd [1] [mM] | rank order of binding affinity among the four albumins [1, 10] | Kd [2] [mM] | rank order of binding affinity among the four albumins [2, 11] | Kd [3] [mM] | difference in binding affinity, PSA affinity greater than HSA [3, 12] [%] | rank order of binding affinity among the four albumins [3, 13] | Kd (Rat serum albumin (RSA)) [mM] | rank order of binding affinity among the four albumins (Rat serum albumin (RSA); [14]) | Half-life ([4]; ref Pizzurro et al., 2019) | Half-life ([5]; ref Pizzurro et al., 2019) | difference in binding affinity, BSA affinity lower than HSA ([1]; from DSF Kd) [%] | Half-life [9] | further results
1 | O=C(O)C(F)(F)C(F)(F)C(F)(F)F [PFBA, Perfluorobutanoic acid] | 3.06 | 4 | 2.64 | 3 | 1.28 | 69.4 | 1 | 1.9 | 2 | 1–9.2 h^a | 3.1 days^a | – | – | –
2 | O=C(O)C(F)(OC(F)(F)C(F)(F)C(F)(F)F)C(F)(F)F (centres unmarked) [HFPO-DA, hexafluoropropylene oxide-dimer acid] | 2.55 | 4 | 1.57 | 1 | 2.12 | – | 3 | 1.64 | 2 | – | – | 47.6 | – | difference in binding affinity, HSA affinity greater than PSA ([3]; HSA compared with PSA, from DSF Kd): 29.8%
3 | OCCC(F)(F)C(F)(F)C(F)(F)C(F)(F)C(F)(F)C(F)(F)C(F)(F)C(F)(F)F [8:2 FTOH] | – | – | – | – | – | – | – | – | – | – | – | – | – | accumulation in tissues [6]: did not accumulate; accumulation in tissues [7]: did not accumulate
4 | O=S(=O)(O)C(F)(F)C(F)(F)C(F)(F)C(F)(F)C(F)(F)C(F)(F)C(F)(F)C(F)(F)F [PFOS, perfluorooctanesulfonic acid] | – | – | 0.69 | – | – | – | – | – | – | 24–83 days^a | 3.3–5.4 years^a | – | 1.7 years^d | hill slope of the biphasic melt curve [1]: 3.5 ± 0.3; rank order of binding affinity among the four albumins [1]: 4; ΔTm [1]: 15.3 °C; binding affinity of 8-carbon congener greater than 4-carbon congener [2]: 83.5%; rank order of binding affinity among the four albumins [2]: 3; Kd ([2]; human, pH 7.4): 0.62 mM; ΔTm ([2]; human, pH 7.4): 15.9 °C; binding affinity of 8-carbon congener greater than 4-carbon congener [3]: 106.7%; difference in binding affinity, PSA affinity greater than HSA [3]: 57.9%; rank order of binding affinity among the four albumins [3]: 1; ΔTm [3]: 5.74 °C; binding affinity of 8-carbon congener greater than 4-carbon congener (Rat serum albumin (RSA)): 108.2%; rank order of binding affinity among the four albumins (Rat serum albumin (RSA)): 2; ΔTm (Rat serum albumin (RSA)): 4.76 °C; Half-life [8]: 39–120 days^c
5 | O=S(=O)(O)C(F)(F)C(F)(F)C(F)(F)C(F)(F)F [PFBS, perfluorobutanesulfonic acid] | – | 1 | 1.68 | 4 | 1.25 | 29.4 | 2 | 1.41 | 3 | 0.6–7.4 h^a | 25.8 days^a | – | 43 days^d | difference in binding affinity, HSA affinity lower than BSA ([1]; HSA compared with BSA, from DSF Kd): 71.0%; difference in binding affinity, RSA affinity greater than HSA (Rat serum albumin (RSA)): 17.5%
6 | OCCC(F)(F)C(F)(F)C(F)(F)C(F)(F)C(F)(F)C(F)(F)F [6:2 FTOH, 1H, 1H, 2H, 2H-perfluorooctanol] | – | – | – | – | – | – | – | – | – | – | – | – | – | ΔTm, maximum change in melting temperature ([1]; BSA 0.18 mM, DSF, value (±SEM), N/A = nonbinding): no changes in albumin TM were detected; ΔTm, maximum change in melting temperature ([2]; HSA 0.13 mM, DSF, value (±SEM), N/A = nonbinding): no changes in albumin TM were detected; ΔTm, maximum change in melting temperature ([3]; PSA 0.11 mM, DSF, value (±SEM), N/A = nonbinding): no changes in albumin TM were detected; ΔTm, maximum change in melting temperature (Rat serum albumin (RSA); RSA 0.18 mM, DSF, value (±SEM), N/A = nonbinding): no changes in albumin TM were detected
7 | O=C(O)C(F)(F)C(F)(F)C(F)(F)C(F)(F)C(F)(F)C(F)(F)C(F)(F)F [PFOA, perfluorooctanoic acid] | 0.99 | 4 | 0.79 | 3 | 0.37 | 72.4 | 1 | 0.4 | 2 | 0.1–15 days^a | 2.3–8.5 years^a | 22.5 | 236 days^d | binding affinity of 8-carbon congener greater than 4-carbon congener ([1]; BSA, PFOA vs PFBA): 102.2%; binding affinity of 8-carbon congener greater than 4-carbon congener ([2]; HSA, PFOA vs PFBA, PFOS vs PFBS): 107.9%; binding affinity of 8-carbon congener greater than 4-carbon congener ([3]; PSA, PFOA vs PFBA, PFOS vs PFBS): 110.3%; difference in binding affinity, RSA affinity greater than HSA (Rat serum albumin (RSA)): 65.5%; binding affinity of 8-carbon congener greater than 4-carbon congener (Rat serum albumin (RSA); RSA, PFOA vs PFBA, PFOS vs PFBS): 130.4%; Half-life [8]: 0.8–1.3 days^c
8 | O=S(=O)(O)CCC(F)(F)C(F)(F)C(F)(F)C(F)(F)C(F)(F)C(F)(F)F [6:2 FTSA, 2H, 2H, 3H, 3H-perfluorooctane-1-sulfonate] | 1.39 | 4 | – | 2 | – | – | 3 | – | 1 | – | – | 108.9 | – | ΔTm [1]: 17.2 °C; ΔTm ([2]; human, pH 7.4): 3.53 °C; ΔTm [3]: 8.72 °C; ΔTm (Rat serum albumin (RSA)): 7.99 °C
9 | O=C(O)C(F)(F)C(F)(F)C(F)(F)C(F)(F)C(F)(F)F [PFHxA, Perfluorohexanoic acid] | 2.17 | 4 | 1.71 | 3 | 0.95 | 57.1 | 1 | 1.33 | 2 | – | – | 23.7 | 4.1 days^d | Half-life ([4]; ref Russell et al., 2013): 0.4–9.8 h^e; Half-life ([5]; ref Lau, 2015): 32 days^b
